These results are taken from patent US5100879A, “Method of topically cleansing the human body” (K.K. Ueno Seiyaku Oyo Kenkyujo, priority 1987, dated 1992).

The subject of series [1] is reverse transcriptase (authentic sample) derived from Avian Myeloblastosis Virus. As to the kind of experiment: Inhibition of reverse transcriptase activity (AMV), Examples 1 and 5. It is filed as biochemical. Conditions: FIGS. 30-33. The procedure: Test substances were assayed for inhibition against the enzyme activity of reverse transcriptase (authentic sample) derived from Avian Myeloblastosis Virus (abbrev. AMV), a kind of retrovirus. Five microliters of […] (template RNA), 4 μl of (dT)12-18 (primer DNA), and 1 μl of water were mixed with 5 μl of 0.5M Tris-HCl (pH 8.4) including 0.1% triton X-100, 5 μl of […], 5 μl of 20 […], 5 μl of water, and [^3 H]-TTP (tritium labeled thymidine triphosphate). To this mixture, test substances in solutions (final concentrations: 1, 0.1, and 0.01 μg/ml, 5 μl) or buffer solutions (control, 5 μl) at various doses were added. Then, 5 μl (one unit) of the authentic reverse transcriptase derived from AMV was added and the reaction mixture was incubated at 37° C. for 30 minutes. The reaction was stopped by addition of trichloroacetic acid, and after filtering the reaction mixture, the radioactivity of the polymerized (3H-T)n retained on the filter was measured using a liquid scintilation counter. As the test substances, sodium dextran sulfate (molecular weight: 5000), same (molecular weight: 8000), same (molecular weight: 500000), fucoidin, κ-carrageenan, λ-carrageenan, and .iota.-carrageenan were used.
The effects of the test substances on the reverse transcriptase activity of AMV were evaluated by the method described in Example 1.

Series [2] concerns HTLV-III. As to the kind of experiment: Anti-AIDS activity, infected cell rate of MT-4 cells infected with HTLV-III at the 6th day (Example 9). In kind it is cell-based. Conditions: for Infected cell (%): 6th day, control without test substance 100%; for anti-AIDS virus activity, in words: Example 9. The procedure: (§1) To MT-4 cells (30×10^4 /ml) cultured in RPMI-1640 medium containing 10% bovine serum, was inoculated HTLV-III, and the suspension was incubated at 37° C. for 1 hour to cause the adsorption of the virus. The cell:virus ratio was 500:1. The cells were then washed, and cultured with or without various doses of the test substances (same as those of Example 1) at 37° C. under 5% CO2 for 3 days, after which cell growth, viability, and percentage of infected cells were recorded. The infected cells were distinguished from the uninfected cells by an indirect immuno-fluorescence method. Thus, the cultured cells were fixed with cold methanol on a slide glass, reacted with antibody to the HTLV-III-specific antigens, and further with the secondary antibody (having a fluororescent label). The results are shown in FIGS. 9-29, wherein, .gradient., .increment. and .quadrature. show the controls without virus, and show the infection experiments with HTLV-III. The cell growth is indicated in number of cells, the viability (%) in number of viable cells ×100/number of total cells, and the infected cell rate (%) in number of fluorescent-positive cells x 100/number of total cells.
In order to examine the correlation between the anti-AIDS virus activity and the molecular structure (especially, molecular weight and S-content or number of sulfate group in this case) of various test substances including those used in Examples 1-7, the anti-AIDS activities were evaluated for the various naturally occurring polysaccharides, polysaccharides having a sulfate group, mucopolysaccharides, mucopolysaccharide sulfate, and mucopolysaccharide polysulfate. Further, similar experiments were carried out with various other sulfates which were synthetically obtained. The experimental procedures employed are identical to that in the preceding experiments. The cultured MT-4 cells were infected with HTLV-III and the inhibitory effects of various test substances on the infected cell rate (number of fluorescent cell×100/ total cell, %) were determined at the 6th day.

The test system of series [3] is HTLV-III. As to the kind of experiment: Anti-AIDS virus activity, MT-4 cells infected with HTLV-III, 3 days (Examples 3, 6, 7). In kind it is cell-based. The conditions noted are these: increasing dose. Here is the method:
as §1
Test substances were assayed for the anti-AIDS virus activity in the same manner as in Example 3 using cell culture. […]
The anti-AIDS virus activity of heparin was evaluated in the same manner as in Example 3. […]

In the next series the test system is MT-4 cells. The series can be described thus: Cytotoxicity, MT-4 cells cultured without virus (Examples 4 and 8). In kind it is cell-based, human. The text has this: The cell:virus ratio was 500:1. […] The infected cells were distinguished from the uninfected cells by an indirect immuno-fluorescence method. Thus, the cultured cells were fixed with cold methanol on a slide glass, reacted with antibody to the HTLV-III-specific antigens, and further with the secondary antibody (having a fluororescent label). […] The cell growth is indicated in number of cells, the viability (%) in number of viable cells ×100/number of total cells, and the infected cell rate (%) in number of fluorescent-positive cells x 100/number of total cells.

The next series relates to mice. The conditions noted are these: intravenously; cited from earlier work.
Series [4] concerns reverse transciptase of simian sarcoma virus. The conditions noted are these: Cancer Research, 38, 2401 2407; cited from earlier work.
For series [5], the system named is DNA polymerase of phytohemagglutinin stimulated human lymphocytes. The conditions noted are these: Cancer Research, 38, 2401 2407; cited from earlier work.

Take Chondroitin polysulfate: in series [1], the “reverse transcriptase inhibitory activity compared with the natural substances” value is listed as “stronger activity”. The “Infected cell (%)” value in the series on HTLV-III [2] (10 μg/ml) was 3%; in the series on HTLV-III [2] (100 μg/ml) it was 1%. For the same substance, the “anti-AIDS virus activity, in words” value with HTLV-III [2] was “particularly strong”.

Heparin: in the series with HTLV-III [3], the “cell growth (number of cells) and viability of MT-4 cells infected with HTLV-III” value is “the number of cells and viability were maintained to that of control”; the “infected cell rate (%) of MT-4 cells infected with HTLV-III, in words” value is recorded as “less susceptible to the viral infection”. For the same substance, the “Infected cell (%)” value in the series on HTLV-III [2] (10 μg/ml) worked out at 41%. Besides, in the series on HTLV-III [2] (100 μg/ml), the “Infected cell (%)” value stood at 1%. In the series on HTLV-III [2], the “anti-AIDS virus activity, in words” value is given as “particularly strong”. In the series on MT-4 cells, the “cytotoxicity to MT-4 cells, in words” value is on record as “little cytotoxicity”. Further, the “acute toxicity (LD50)” value in the series on mice was 1,500-2,000 mg/kg. In addition, in series [4], the “inhibition of reverse transciptase of simian sarcoma virus in vitro” value is recorded as “inhibit”. Moreover, in series [5], the “inhibition of DNA polymerase of phytohemagglutinin stimulated human lymphocytes in vitro” value was “inhibit”.

With Keratan polysulfate, the “reverse transcriptase inhibitory activity compared with the natural substances” value in series [1] is “stronger activity”. Also, the “Infected cell (%)” value in the series with HTLV-III [2] (10 μg/ml) worked out at 80%; in the series on HTLV-III [2] (100 μg/ml), 40%.
